Assay results from ChEMBL document CHEMBL5518181, “Studies of antibacterial activity (in vitro and in vivo) and mode of action for des-acyl tridecaptins (DATs)” (Eur J Med Chem, 2024).
Converted amounts (≈) assume the structure as drawn. The source made the active and inactive calls. The calls are words filed in the database; no cut-off is given here.

Experiments:
Klebsiella pneumoniae [1] = assay: Antibacterial activity against Klebsiella pneumoniae ATCC 43816 infected in mouse urinary tract infection model at <10 mg/kg, iv administered every 4 hrs and measured after 26 hrs; type: functional, organism-based
[2] = Chemical stability of compound in benzylamine; type: physicochemical
Lipopolysaccharide (LPS) = assay: Binding affinity to Escherichia coli O55:B5 LPS assessed as dissociation constant by ITC analysis; type: subcellular
Klebsiella pneumoniae [3] = assay: Antibacterial activity against Klebsiella pneumoniae ATCC 13883 assessed as inhibition of bacterial growth incubated for 18 hrs in presence of 2 mM MgCl2; type: functional, organism-based
Escherichia coli [4] = assay: Antibacterial activity against Escherichia coli ATCC 25922 infected in cyclophosphamide immunosuppressed mouse thigh infection model at 30 to 90 mg/kg, iv administered every 2 hrs starting from 1 hr post infection and measured 25 hrs post infection; type: functional, organism-based; conditions: dose 30-90 mg/kg, time 24.0 hrs
Escherichia coli [5] = assay: Antibacterial activity against Escherichia coli ATCC 25922 assessed as inhibition of bacterial growth incubated for 18 hrs in presence of 25 mM bicarbonate; type: functional, organism-based
Cytochrome P450 1A2 [6] = biological target: T1, Cytochrome P450 1A2 (Homo sapiens, UniProt P05177); assay: Induction of CYP1A2 (unknown origin); type: ADME
T1 sequence (P05177 whole entry): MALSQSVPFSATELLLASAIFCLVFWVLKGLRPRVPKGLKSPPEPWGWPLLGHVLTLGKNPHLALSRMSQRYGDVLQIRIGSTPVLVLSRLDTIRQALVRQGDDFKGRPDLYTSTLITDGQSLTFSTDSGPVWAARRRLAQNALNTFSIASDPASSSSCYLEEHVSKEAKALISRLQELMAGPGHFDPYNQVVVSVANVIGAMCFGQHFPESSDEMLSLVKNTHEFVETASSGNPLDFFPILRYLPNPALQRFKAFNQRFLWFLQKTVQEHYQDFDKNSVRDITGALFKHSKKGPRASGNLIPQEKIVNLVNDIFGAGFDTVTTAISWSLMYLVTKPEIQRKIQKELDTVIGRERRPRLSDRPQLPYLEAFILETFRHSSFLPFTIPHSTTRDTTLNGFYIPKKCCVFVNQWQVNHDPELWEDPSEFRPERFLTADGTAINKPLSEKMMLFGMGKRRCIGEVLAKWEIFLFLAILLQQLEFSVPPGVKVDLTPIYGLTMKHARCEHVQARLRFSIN

[7] = Chemical stability of compound at pH 7.4; type: physicochemical; conditions: buffer
Escherichia coli [8] = assay: Antibacterial activity against Escherichia coli Swiss 7 harboring mcr-1 gene assessed as inhibition of bacterial growth incubated for 18 hrs; type: functional; conditions: read-out: MIC100
[9] = Half life in Swiss mouse at 10 mg/kg, iv administered as single bolus dose and measured upto 24 hrs by LC-MS/MS analysis; type: ADME, organism-based; conditions: in vivo
Cell membrane = assay: Induction of membrane permeabilization in Escherichia coli ATCC 25922 at 32 to 64 ug/ml measured after 30 mins to 2 hrs by Sytox Green labelling based microscopic analysis; type: cell membranes; conditions: dose 32-64 µg/ml, time 0.5-2 hrs
[10] = Volume of distribution at steady state in Swiss mouse at 10 mg/kg, iv administered as single bolus dose and measured upto 24 hrs by LC-MS/MS analysis; type: ADME, organism-based; conditions: in vivo, read-out: Vdss
Cytochrome P450 2B6 [11] = biological target: T2, Cytochrome P450 2B6 (Homo sapiens, UniProt P20813); assay: Inhibition of CYP2B6 (unknown origin); type: ADME
T2 sequence (P20813 whole entry): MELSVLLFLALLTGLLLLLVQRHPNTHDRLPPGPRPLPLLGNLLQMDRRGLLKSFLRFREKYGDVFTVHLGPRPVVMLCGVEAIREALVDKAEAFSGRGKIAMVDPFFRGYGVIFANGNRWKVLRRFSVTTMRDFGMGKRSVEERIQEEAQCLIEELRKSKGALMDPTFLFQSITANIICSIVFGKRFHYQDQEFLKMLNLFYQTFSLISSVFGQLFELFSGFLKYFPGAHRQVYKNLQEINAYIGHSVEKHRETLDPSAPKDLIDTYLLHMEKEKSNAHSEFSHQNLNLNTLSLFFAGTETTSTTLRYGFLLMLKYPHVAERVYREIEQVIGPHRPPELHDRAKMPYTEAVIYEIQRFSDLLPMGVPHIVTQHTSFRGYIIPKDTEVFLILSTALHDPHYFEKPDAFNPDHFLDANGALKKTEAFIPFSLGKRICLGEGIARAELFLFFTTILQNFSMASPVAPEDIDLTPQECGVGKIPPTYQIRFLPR

Cytochrome P450 1A2 [12] = biological target: T1, Cytochrome P450 1A2; assay: Inhibition of CYP1A2 (unknown origin); type: ADME
[13] = Hydrophobicity of compound assessed as %MeCN at peak elution by RP-HPLC analysis; type: physicochemical
Cytochrome P450 2B6 [14] = biological target: T2, Cytochrome P450 2B6; assay: Induction of CYP2B6 (unknown origin); type: ADME
[15] = Observed clearance in Swiss mouse at 10 mg/kg, iv administered as single bolus dose and measured upto 24 hrs by LC-MS/MS analysis; type: ADME, organism-based; conditions: in vivo
[16] = Binding affinity to gram negative bacterial lipid II assessed as dissociation constant by ITC analysis; parameters: species or system Bacteria
Escherichia coli [17] = assay: Antibacterial activity against Escherichia coli ATCC 25922 assessed as inhibition of bacterial growth incubated for 18 hrs in presence of 150 mM NaCl; type: functional, organism-based
Escherichia coli [18] = assay: Antibacterial activity against Escherichia coli ATCC 35218 infected in Swiss albino mouse septicemia model assessed as log10 reduction in bacterial burden below stasis in kidney at 20 mg/kg, iv administered twice every 2 hrs and measured after 5 hrs; type: functional
Escherichia coli [19] = assay: Antibacterial activity against wild-type Escherichia coli ATCC 25922 assessed as inhibition of bacterial growth incubated for 18 hrs in presence of 50% heat inactivated human serum; type: functional; conditions: read-out: MIC100
Klebsiella pneumoniae [20] = assay: Antibacterial activity against Klebsiella pneumoniae ATCC 43816 assessed as inhibition of bacterial growth incubated for 18 hrs; type: functional; conditions: read-out: MIC100
Acinetobacter baumannii = assay: Antibacterial activity against wild-type Acinetobacter baumannii ATCC 19606 assessed as inhibition of bacterial growth incubated for 20 hrs; type: functional; conditions: read-out: MIC100
Enterobacter cloacae = assay: Antibacterial activity against Enterobacter cloacae ATCC 23355 assessed as inhibition of bacterial growth incubated for 18 hrs; type: functional; conditions: read-out: MIC100
[21] = Chemical stability of compound in mercaptoethanol; type: physicochemical
Klebsiella pneumoniae [22] = assay: Antibacterial activity against Klebsiella pneumoniae ATCC BAA-2470 expressing NDM-1 assessed as inhibition of bacterial growth incubated for 18 hrs; type: functional; conditions: read-out: MIC100
Escherichia coli [23] = assay: Antibacterial activity against Escherichia coli ATCC 25922 assessed as inhibition of bacterial growth incubated for 18 hrs in presence of 2 mM MgCl2; type: functional, organism-based
[24] = Clearance in mouse microsomes; type: ADME, Microsome
Staphylococcus aureus = assay: Antibacterial activity against […] assessed as inhibition of bacterial growth incubated for 18 hrs; type: functional; conditions: ATCC 29213, read-out: MIC100
[25] = Cmax in Swiss mouse kidney at 10 mg/kg, iv administered as single bolus dose and measured upto 24 hrs by LC-MS/MS analysis; type: ADME, organism-based
Salmonella typhimurium = assay: Antibacterial activity against Salmonella typhimurium ATCC 13311 assessed as inhibition of bacterial growth incubated for 18 hrs; type: functional, Salmonella enterica subsp. enterica serovar Typhimurium; conditions: Salmonella enterica, read-out: MIC100
Escherichia coli [26] = assay: Antibacterial activity against Escherichia coli Swiss 9 harboring mcr-1 gene assessed as inhibition of bacterial growth incubated for 18 hrs; type: functional; conditions: read-out: MIC100

## CC[C@H](C)[C@@H](NC(=O)[C@@H](NC(=O)[C@H](CCC(=O)O)NC(=O)[C@H](Cc1ccccc1)NC(=O)[C@@H](CCN)NC(=O)[C@H](CCN)NC(=O)[C@H](CO)NC(=O)[C@@H](Cc1c[nH]c2ccccc12)NC(=O)[C@@H](CO)NC(=O)CNC(=O)[C@@H](CCN)NC(=O)[C@H](NC(=O)[C@H](C)N)C(C)C)C(C)C)C(=O)N[C@@H](C)C(=O)O
Klebsiella pneumoniae [1]
  Activity: Active
[2]
  Stability: Stable
Lipopolysaccharide (LPS)
  Kd: 35.7 µM
Klebsiella pneumoniae [3]
  Activity: Active
Escherichia coli [4]
  Activity: Active
Escherichia coli [5]
  Activity: Active
Cytochrome P450 1A2 [6]
  Activity: Not Active
[7]
  Stability: Stable
Escherichia coli [8]
  MIC: 16 µg/mL (≈ 10.9 µM)
[9]
  half-life: 22.8 min
Cell membrane
  Activity: Active
[10]
  Vd: 0.1 L/kg
Cytochrome P450 2B6 [11]
  inhibition (INH): Not Active
Cytochrome P450 1A2 [12]
  inhibition (INH): Not Active
[13]
  MeCN percentage at peak elution: 40.3%
Cytochrome P450 2B6 [14]
  Activity: Not Active
[15]
  clearance: 2 mL/min/kg
[16]
  Kd: 2.6 µM
Escherichia coli [17]
  Activity: Active
Escherichia coli [18]
  log(activity): ~2
Escherichia coli [19]
  MIC: 2 µg/mL
Klebsiella pneumoniae [20]
  MIC: 8 µg/mL (≈ 5.46 µM)
Acinetobacter baumannii
  MIC: 32 µg/mL (≈ 21.8 µM)
Enterobacter cloacae
  MIC: 2 µg/mL (≈ 1.36 µM)
[21]
  Stability: Stable
Klebsiella pneumoniae [22]
  MIC: 8 µg/mL (≈ 5.46 µM)
Escherichia coli [23]
  Activity: Active
[24]
  microsomal CLint: 2 µL/min/mg
Staphylococcus aureus
  MIC: > 64 µg/mL
[25]
  Cmax: 152 µg/mL
Salmonella typhimurium
  MIC: 16 µg/mL (≈ 10.9 µM)
Escherichia coli [26]
  MIC: 8 µg/mL (≈ 5.46 µM)
